From ChEMBL document CHEMBL1201862, “PubChem BioAssay data set” (2004)
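Results reflect a 48-hour exposure of cells in 96-well plates to compound at five concentrations. Here, GI50 denotes the concentration required for 50% inhibition of growth.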 The source made the active and inactive calls. No stated cut-off is given here; in the data, active = GI50 up to about 1.1 µM and inactive = higher.

Experiments:
Assay in all cases: NCI-60 cell line screen, 48 h
[1] = system: 786-0
[2] = system: TK-10
[3] = system: ACHN
[4] = system: DLD-1
[5] = system: U-251
[6] = system: KM-20L2
[7] = system: DMS-273
[8] = system: HOP-18
[9] = system: DMS-114
[10] = system: IGROV-1
[11] = system: HOP-62
[12] = system: UO-31
[13] = system: MCF7
[14] = system: NCI/ADR-RES
[15] = system: SNB-78
[16] = system: M14
[17] = system: Hs-578T
[18] = system: PC-3
[19] = system: T47D
[20] = system: BT-549

Compound	GI50 [1]	GI50 [2]	GI50 [3]	GI50 [4]	GI50 [5]	GI50 [6]	GI50 [7]	GI50 [8]	GI50 [9]	GI50 [10]	GI50 [11]	GI50 [12]	GI50 [13]	GI50 [14]	GI50 [15]	GI50 [16]	GI50 [17]	GI50 [18]	GI50 [19]	GI50 [20]
CN1NC(c2ccc(Cl)cc2)=C(C#N)C(=O)CC1c1ccccc1 (configuration not stated)	> 100 µM (inactive)	> 100 µM (inactive)	> 100 µM (inactive)	> 100 µM (inactive)	> 100 µM (inactive)	> 100 µM (inactive)	> 100 µM (inactive)	29.9 µM (inactive)	> 100 µM (inactive)											
Cc1c2cnccc2c(C)c2c1c1ccccc1n2CC1CO1 (configuration not stated)				1.55 µM (inactive)	1.6 µM (inactive)	1.3 µM (inactive)	0.638 µM (active)	1.86 µM (inactive)	0.82 µM (active)	1.48 µM (inactive)	1.64 µM (inactive)	1.42 µM (inactive)	0.0422 µM (active)	0.826 µM (active)	1.83 µM (inactive)					
NC(=O)CCC(NCc1c2ccccc2[n+]([O-])c2ccccc12)C(=O)O (configuration not stated)	70.8 µM (inactive)	> 100 µM (inactive)	78 µM (inactive)	46.9 µM (inactive)	> 100 µM (inactive)	52.6 µM (inactive)	56.8 µM (inactive)	33.5 µM (inactive)	41.9 µM (inactive)	> 100 µM (inactive)	> 100 µM (inactive)	59 µM (inactive)			> 100 µM (inactive)	> 100 µM (inactive)				
CC(=O)NNc1nc(C)c(C(=O)NNC(=O)C(=O)Nc2ccccc2C#N)s1	> 100 µM (inactive)	> 100 µM (inactive)	> 100 µM (inactive)	> 100 µM (inactive)	> 100 µM (inactive)	> 100 µM (inactive)	> 100 µM (inactive)	> 100 µM (inactive)	> 100 µM (inactive)	> 100 µM (inactive)	> 100 µM (inactive)	> 100 µM (inactive)			> 100 µM (inactive)	> 100 µM (inactive)				
O=C1C(Br)=CC2([N+](=O)[O-])CCNC3=C(C4=NCCc5c[nH]c(c54)C3=O)C2=C1Br (configuration not stated)				0.364 µM (active)	1.51 µM (inactive)	0.414 µM (active)	1.72 µM (inactive)	14.4 µM (inactive)	0.163 µM (active)	1.99 µM (inactive)	3.58 µM (inactive)	9.59 µM (inactive)	0.0562 µM (active)	0.128 µM (active)	2.09 µM (inactive)					
COC(=O)c1cccc(N[C@@H]2c3cc4c(cc3C(c3cc(OC)c(O)c(OC)c3)[C@H]3C(=O)OCC32)OCO4)c1 (some centres not stated)				1.89 µM (inactive)	1.05 µM (active)	2.75 µM (inactive)	0.362 µM (active)	2.62 µM (inactive)	0.568 µM (active)	3.13 µM (inactive)	0.239 µM (active)	0.718 µM (active)	0.442 µM (active)	0.468 µM (active)	3.67 µM (inactive)					
c1ccc2c3c(ccc2c1)-c1[nH]ncc1CCO3				34.8 µM (inactive)	18.4 µM (inactive)	34.5 µM (inactive)	40.5 µM (inactive)	61.4 µM (inactive)	32.7 µM (inactive)	> 52 µM (inactive)	30.6 µM (inactive)	25.6 µM (inactive)	32.9 µM (inactive)	38.2 µM (inactive)	29.2 µM (inactive)					
Cc1nc2ccccc2c(=O)n1Nc1ccc(C(=O)O)cc1				> 100 µM (inactive)	> 100 µM (inactive)	> 100 µM (inactive)	> 100 µM (inactive)	> 100 µM (inactive)	> 100 µM (inactive)	> 100 µM (inactive)	> 100 µM (inactive)	> 100 µM (inactive)	> 100 µM (inactive)	> 100 µM (inactive)	> 100 µM (inactive)					
O=C(c1ccccc1)c1nc2ccc(Cl)cc2c2c1CCCO2		> 100 µM (inactive)	> 100 µM (inactive)		> 100 µM (inactive)	> 100 µM (inactive)	> 100 µM (inactive)	> 100 µM (inactive)	> 100 µM (inactive)	> 100 µM (inactive)	> 100 µM (inactive)	> 100 µM (inactive)			> 100 µM (inactive)	> 100 µM (inactive)				
O=C1NC(=O)C2C3C=CC(C12)C1C2C(=O)NC(=O)C2C31 (configuration not stated)	682 µM (inactive)	> 250 µM (inactive)	> 250 µM (inactive)	228 µM (inactive)	203 µM (inactive)	208 µM (inactive)	116 µM (inactive)	222 µM (inactive)	125 µM (inactive)	186 µM (inactive)	74.3 µM (inactive)	211 µM (inactive)	164 µM (inactive)	> 250 µM (inactive)	204 µM (inactive)	240 µM (inactive)	100 µM (inactive)	217 µM (inactive)	> 250 µM (inactive)	> 250 µM (inactive)
COc1ccc(Cc2nn(C3OC(COC(C)=O)C(OC(C)=O)C(OC(C)=O)C3OC(C)=O)c(=S)n(-c3ccc(OC)cc3)c2=O)cc1 (configuration not stated)				> 100 µM (inactive)	> 100 µM (inactive)	> 100 µM (inactive)	> 100 µM (inactive)	> 94 µM (inactive)		> 100 µM (inactive)	> 100 µM (inactive)	> 100 µM (inactive)	> 100 µM (inactive)	> 100 µM (inactive)	> 100 µM (inactive)					
NC(=O)c1c[se]c(C2OC(COP(=O)(O)CP(=O)(O)OCC3OC(n4cnc5c(N)ncnc54)C(O)C3O)C(O)C2O)n1 (configuration not stated)	63.1 µM (inactive)		64.3 µM (inactive)	55.5 µM (inactive)	61 µM (inactive)	74.5 µM (inactive)	38.6 µM (inactive)	> 100 µM (inactive)	97.5 µM (inactive)	84.3 µM (inactive)	> 100 µM (inactive)	> 100 µM (inactive)			> 100 µM (inactive)	72.8 µM (inactive)				
COc1cccc(NC(=O)CSc2nnc(-c3ccc(NC(C)=O)cc3)o2)c1	> 100 µM (inactive)	> 100 µM (inactive)	> 100 µM (inactive)	> 100 µM (inactive)	> 100 µM (inactive)	94.6 µM (inactive)	> 100 µM (inactive)	14 µM (inactive)	> 100 µM (inactive)	50 µM (inactive)	> 100 µM (inactive)	80.4 µM (inactive)			> 100 µM (inactive)	> 100 µM (inactive)				
